pEC50, pKi: −log10 of the molar value.
Target: Menin-MLL (Homo sapiens (Human), UniProt O00255)
Assay: Determination of binding constants (Ki) to Menin-MLL (HTRF)
Conditions: HTRF; 0.25 nM H-FL-Menin, 3.2 nM FITC-MLL-4-43, 24 hr incubation

Chain of Menin-MLL (O00255 whole entry): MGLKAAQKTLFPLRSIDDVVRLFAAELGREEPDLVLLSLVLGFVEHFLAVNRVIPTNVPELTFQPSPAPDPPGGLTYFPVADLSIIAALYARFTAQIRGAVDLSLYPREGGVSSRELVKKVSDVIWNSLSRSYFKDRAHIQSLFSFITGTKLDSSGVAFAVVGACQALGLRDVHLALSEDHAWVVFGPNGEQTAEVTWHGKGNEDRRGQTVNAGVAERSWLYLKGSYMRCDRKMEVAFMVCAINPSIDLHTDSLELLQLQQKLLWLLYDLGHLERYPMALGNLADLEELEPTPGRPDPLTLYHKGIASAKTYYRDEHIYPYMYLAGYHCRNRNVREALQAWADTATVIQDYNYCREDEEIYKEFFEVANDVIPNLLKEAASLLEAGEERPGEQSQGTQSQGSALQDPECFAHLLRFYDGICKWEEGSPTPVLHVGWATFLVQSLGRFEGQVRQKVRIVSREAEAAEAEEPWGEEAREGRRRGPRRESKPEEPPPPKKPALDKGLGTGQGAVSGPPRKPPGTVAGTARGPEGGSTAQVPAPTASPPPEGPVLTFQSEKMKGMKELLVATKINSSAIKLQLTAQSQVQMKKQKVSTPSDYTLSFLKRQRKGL

Structure (SMILES) | pEC50
CC(C)N(C(=O)c1cc(F)ccc1Oc1cncnc1N1CC2(CCN(C[C@@H]3CC[C@@H](NS(=O)(=O)C(C)C)CO3)CC2)C1)[C@@H]1CCOC1 [Compound 132, 5-Fluoro-N-i sopropyl-2-((4-(7-(((2S,5R)-5-((1-methylethyl)sulfonamido)tetrahydro-2H-pyran-2-yl)methyl)-2,7-diazaspiro[3.5]nonan-2-yl)pyrimidin-5-yl)oxy)-N-((R)-tetrahydrofuran-3-yl)benzamide] | > 7.30
CCS(=O)(=O)N[C@@H]1CC[C@@H](CN2CCC3(CC2)CN(c2ncncc2Oc2ccc(F)cc2C(=O)N(CC(F)(F)F)C(C)C)C3)OC1 [Compound 152, 2-((4-(7-(((2S,5R)-5-(Ethylsulfonamido)tetrahydro-2H-pyran-2-yl)methyl)-2,7-diazaspiro[3.5]nonan-2-yl)pyrimidin-5-yl)oxy)-5-fluoro-N-isopropyl-N-(2,2,2-trifluoroethyl)benzamide] | > 7.30

Same assay, conditions: HTRF; 0.25 nM H-FL-Menin, 3.2 nM FITC-MLL-4-43, 24 hr incubation; read-out: Menin-MLL Ki HTRF Assay: Ki

Structure (SMILES) | pKi
CC(C)N(C(=O)c1cc(F)ccc1Oc1cncnc1N1CC2(CCN(C[C@@H]3CC[C@@H](NS(=O)(=O)C(C)C)CO3)CC2)C1)[C@@H]1CCOC1 [Compound 132, 5-Fluoro-N-i sopropyl-2-((4-(7-(((2S,5R)-5-((1-methylethyl)sulfonamido)tetrahydro-2H-pyran-2-yl)methyl)-2,7-diazaspiro[3.5]nonan-2-yl)pyrimidin-5-yl)oxy)-N-((R)-tetrahydrofuran-3-yl)benzamide] | > 9.00
Cc1nc(S(=O)(=O)N[C@@H]2CC[C@@H](CN3CCC4(CC3)CN(c3ncncc3Oc3ccc(F)cc3C(=O)N(C(C)C)[C@@H]3CCOC3)C4)OC2)cs1 [Compound 133, 5-Fluoro-N-isopropyl-2-((4-(7-(((2S,5R)-5-((2-methylthiazole)-4-sulfonamido)tetrahydro-2H-pyran-2-yl)methyl)-2,7-diazaspiro[3.5]nonan-2-yl)pyrimidin-5-yl)oxy)-N-((R)-tetrahydrofuran-3-yl)benzamide] | > 9.00
Cc1nc(S(=O)(=O)N[C@@H]2CC[C@@H](CN3CCC4(CC3)CN(c3ncncc3Oc3ccc(F)cc3C(=O)N(C(C)C)[C@H]3CCOC3)C4)OC2)cs1 [Compound 135, 5-Fluoro-N-isopropyl-2-((4-(7-(((2S,5R)-5-((2-methylthiazole)-4-sulfonamido)tetrahydro-2H-pyran-2-yl)methyl)-2,7-diazaspiro[3.5]nonan-2-yl)pyrimidin-5-yl)oxy)-N-((S)-tetrahydrofuran-3-yl)benzamide] | > 9.00
CC(C)N(C)C(=O)c1cc(F)ccc1Oc1cncnc1N1CC2(CCN(C[C@@H]3CC[C@@H](NS(=O)(=O)N(C)C)CO3)CC2)C1 [Compound 137, 2-((4-(7-(((2S,5R)-5-((N,N-Dimethylsulfamoyl)amino)tetrahydro-2H-pyran-2-yl)methyl)-2,7-diazaspiro[3.5]nonan-2-yl)pyrimidin-5-yl)oxy)-5-fluoro-N-isopropyl-N-methylbenzamide] | > 9.00
CC(C)N(C)C(=O)c1cc(F)ccc1Oc1cncnc1N1CC2(CCN(C[C@@H]3CC[C@@H](NS(=O)(=O)c4cnn(C)c4)CO3)CC2)C1 [Compound 139, 5-Fluoro-N-isopropyl-N-methyl-2-((4-(7-(((2S,5R)-5-((1-methyl-1H-pyrazole)-4-sulfonamido)tetrahydro-2H-pyran-2-yl)methyl)-2,7-diazaspiro[3.5]nonan-2-yl)pyrimidin-5-yl)oxy)benzamide] | > 9.00
CCN(C(=O)c1cc(F)ccc1Oc1cncnc1N1CC2(CCN(C[C@@H]3CC[C@@H](NS(=O)(=O)N(C)CC)CO3)CC2)C1)C(C)C [Compound 140, N-Ethyl-2-((4-(7-(((2S,5R)-5-((N-ethyl-N-methylsulfamoyl)amino)tetrahydro-2H-pyran-2-yl)methyl)-2,7-diazaspiro[3.5]nonan-2-yl)pyrimidin-5-yl)oxy)-5-fluoro-N-isopropylbenzamide] | > 9.00
CC(C)NS(=O)(=O)N[C@@H]1CC[C@@H](CN2CCC3(CC2)CN(c2ncncc2Oc2ccc(F)cc2C(=O)N(CC(F)F)C(C)C)C3)OC1 [Compound 150, N-(2,2-Difluoroethyl)-5-fluoro-N-isopropyl-2-((4-(7-(((2S,5R)-5-((N-isopropylsulfamoyl)amino)tetrahydro-2H-pyran-2-yl)methyl)-2,7-diazaspiro[3.5]nonan-2-yl)pyrimidin-5-yl)oxy)benzamide] | > 9.00
CCCNS(=O)(=O)N[C@@H]1CC[C@@H](CN2CCC3(CC2)CN(c2ncncc2Oc2ccc(F)cc2C(=O)N(CC(F)F)C(C)C)C3)OC1 [Compound 151, N-(2,2-Difluoroethyl)-5-fluoro-N-isopropyl-2-((4-(7-(((2S,5R)-5-((N-propylsulfamoyl)amino)tetrahydro-2H-pyran-2-yl)methyl)-2,7-diazaspiro[3.5]nonan-2-yl)pyrimidin-5-yl)oxy)benzamide] | > 9.00
CCS(=O)(=O)N[C@@H]1CC[C@@H](CN2CCC3(CC2)CN(c2ncncc2Oc2ccc(F)cc2C(=O)N(CC(F)(F)F)C(C)C)C3)OC1 [Compound 152, 2-((4-(7-(((2S,5R)-5-(Ethylsulfonamido)tetrahydro-2H-pyran-2-yl)methyl)-2,7-diazaspiro[3.5]nonan-2-yl)pyrimidin-5-yl)oxy)-5-fluoro-N-isopropyl-N-(2,2,2-trifluoroethyl)benzamide] | > 9.00
C[C@@H]1COC[C@@H](C)N1C(=O)c1cc(F)ccc1Oc1cncnc1N1CC2(CCN(C[C@@H]3CC[C@@H](NS(=O)(=O)NCC(F)(F)F)CO3)CC2)C1 [Compound 157, {[(3R,6S)-6-{[2-(5-{2-[(3R,5R)-3,5-Dimethylmorpholine-4-carbonyl]-4-fluorophenoxy}pyrimidin-4-yl)-2,7-diazaspiro[3.5]nonan-7-yl]methyl}oxan-3-yl]sulfamoyl}(2,2,2-trifluoroethyl)amine] | > 9.00
C[C@@H]1COC[C@@H](C)N1C(=O)c1cc(F)ccc1Oc1cncnc1N1CC2(CCN(C[C@@H]3CC[C@@H](NS(=O)(=O)NC4CC4)CO3)CC2)C1 [Compound 159, N-[(3R,6S)-6-{[2-(5-{2-[(3R,5R)-3,5-Dimethylmorpholine-4-carbonyl]-4-fluorophenoxy}pyrimidin-4-yl)-2,7-diazaspiro[3.5]nonan-7-yl]methyl}oxan-3-yl](cyclopropylamino)sulfonamide] | > 9.00
C[C@@H]1COC[C@H](C)N1C(=O)c1cc(F)ccc1Oc1cncnc1N1CC2(CCN(C[C@@H]3CC[C@@H](NS(=O)(=O)N(C)C)CO3)CC2)C1 [Compound 160, {[(3R,6S)-6-{[2-(5-{2-[(3R,5S)-3,5-Dimethylmorpholine-4-carbonyl]-4-fluorophenoxy}pyrimidin-4-yl)-2,7-diazaspiro[3.5]nonan-7-yl]methyl}oxan-3-yl]sulfamoyl}dimethylamine] | > 9.00
C[C@@H]1COC[C@H](C)N1C(=O)c1cc(F)ccc1Oc1cncnc1N1CC2(CCN(C[C@@H]3CC[C@@H](NS(=O)(=O)NCC(F)(F)F)CO3)CC2)C1 [Compound 162, {[(3R,6S)-6-{[2-(5-{2-[(3R,5S)-3,5-Dimethylmorpholine-4-carbonyl]-4-fluorophenoxy}pyrimidin-4-yl)-2,7-diazaspiro[3.5]nonan-7-yl]methyl}oxan-3-yl]sulfamoyl}(2,2,2-trifluoroethyl)amine] | > 9.00
C[C@@H]1COC[C@H](C)N1C(=O)c1cc(F)ccc1Oc1cncnc1N1CC2(CCN(C[C@@H]3CC[C@@H](NS(=O)(=O)NC4CC4)CO3)CC2)C1 [Compound 163, N-[(3R,6S)-6-{[2-(5-{2-[(3R,5S)-3,5-Dimethylmorpholine-4-carbonyl]-4-fluorophenoxy}pyrimidin-4-yl)-2,7-diazaspiro[3.5]nonan-7-yl]methyl}oxan-3-yl](cyclopropylamino)sulfonamide] | > 9.00
CC(C)N(C(=O)c1cc(F)ccc1Oc1cncnc1N1CC2(CCN(C[C@@H]3CC[C@@H](NS(C)(=O)=O)CO3)CC2)C1)[C@@H]1CCOC1 [Compound 166, 5-Fluoro-N-isopropyl-2-((4-(7-(((2S,5R)-5-(methylsulfonamido)tetrahydro-2H-pyran-2-yl)methyl)-2,7-diazaspiro[3.5]nonan-2-yl)pyrimidin-5-yl)oxy)-N-((R)-tetrahydrofuran-3-yl)benzamide] | > 9.00
CC(C)N(C(=O)c1cc(F)ccc1Oc1cncnc1N1CC2(CCN(C[C@@H]3CC[C@@H](NS(=O)(=O)N4CCC4)CO3)CC2)C1)[C@@H]1CCOC1 [Compound 168, 2-((4-(7-(((2S,5R)-5-(Azetidine-1-sulfonamido)tetrahydro-2H-pyran-2-yl)methyl)-2,7-diazaspiro[3.5]nonan-2-yl)pyrimidin-5-yl)oxy)-5-fluoro-N-isopropyl-N-((R)-tetrahydrofuran-3-yl)benzamide] | > 9.00
CC(C)N(C(=O)c1cc(F)ccc1Oc1cncnc1N1CC2(CCN(C[C@@H]3CC[C@@H](NS(=O)(=O)N4CCCC4)CO3)CC2)C1)[C@@H]1CCOC1 [Compound 169, 5-Fluoro-N-isopropyl-2-((4-(7-(((2S,5R)-5-(pyrrolidine-1-sulfonamido)tetrahydro-2H-pyran-2-yl)methyl)-2,7-diazaspiro[3.5]nonan-2-yl)pyrimidin-5-yl)oxy)-N-((R)-tetrahydrofuran-3-yl)benzamide] | > 9.00
CCN(C)S(=O)(=O)N[C@@H]1CC[C@@H](CN2CCC3(CC2)CN(c2ncncc2Oc2ccc(F)cc2C(=O)N(C(C)C)[C@@H]2CCOC2)C3)OC1 [Compound 170, 2-((4-(7-(((2S,5R)-5-((N-Ethyl-N-methylsulfamoyl)amino)tetrahydro-2H-pyran-2-yl)methyl)-2,7-diazaspiro[3.5]nonan-2-yl)pyrimidin-5-yl)oxy)-5-fluoro-N-isopropyl-N-((R)-tetrahydrofuran-3-yl)benzamide] | > 9.00
CC(C)N(C(=O)c1cc(F)ccc1Oc1cncnc1N1CC2(CCN(C[C@@H]3CC[C@@H](NS(=O)(=O)NCC(F)(F)F)CO3)CC2)C1)[C@@H]1CCOC1 [Compound 171, 5-Fluoro-N-isopropyl-N-((R)-tetrahydrofuran-3-yl)-2-((4-(7-(((2S,5R)-5-((N-(2,2,2-trifluoroethyl)sulfamoyl)amino)tetrahydro-2H-pyran-2-yl)methyl)-2,7-diazaspiro[3.5]nonan-2-yl)pyrimidin-5-yl)oxy)benzamide] | > 9.00
CCNS(=O)(=O)N[C@@H]1CC[C@@H](CN2CCC3(CC2)CN(c2ncncc2Oc2ccc(F)cc2C(=O)N(C(C)C)[C@@H]2CCOC2)C3)OC1 [Compound 172, 2-((4-(7-(((2S,5R)-5-((N-ethylsulfamoyl)amino)tetrahydro-2H-pyran-2-yl)methyl)-2,7-diazaspiro[3.5]nonan-2-yl)pyrimidin-5-yl)oxy)-5-fluoro-N-isopropyl-N-((R)-tetrahydrofuran-3-yl)benzamide] | > 9.00
CC(C)N(C(=O)c1cc(F)ccc1Oc1cncnc1N1CC2(CCN(C[C@@H]3CC[C@@H](NS(C)(=O)=O)CO3)CC2)C1)[C@H]1CCOC1 [Compound 173, 5-Fluoro-N-isopropyl-2-((4-(7-(((2S,5R)-5-(methylsulfonamido)tetrahydro-2H-pyran-2-yl)methyl)-2,7-diazaspiro[3.5]nonan-2-yl)pyrimidin-5-yl)oxy)-N-((S)-tetrahydrofuran-3-yl)benzamide] | > 9.00

Source: US11919901B2 (Syndax Pharmaceuticals, Inc., priority 2021, dated 2024)
